From article PMC5766609 (Scientific Reports, 2018) come the findings set out here.

For test [1], the target named is T1, human glucagon receptor (GCGR) (Homo sapiens, UniProt P47871).
T1 construct: expressed in transfected cells; host or cells: CHO-JumpIn cells, stably transfected
As to the kind of experiment: cAMP assay on CHO-JumpIn cells stably transfected with human glucagon receptor (HitHunter cAMP).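 Note: peptides tested as 4-fold serial dilutions starting from a 2 µM solution, cells exposed 1 hr at RT in darkness, cAMP quantified against a cAMP standard curve.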 The following applies: Table 2; cAMP accumulation, CHO-JumpIn cells with human GCGR, buffer PBS, 0.1% BSA, 100 μM RO 20-1724, 20% serum; 1 hr at RT; value ± spread; read-out: EC50 GCGR. The format is cell-based.
Method: Briefly, a 2 μM solution of peptide was prepared, and 4-fold serial dilutions were made. 150 nL of the above titration was then dispensed into an Optiplate384 using an Echo555. […] The HitHunter® cAMP Assay kit calibration curve was prepared following the manufacturer’s protocol (DiscoveRx-90-0075L). 30,000 cells/well were added to the peptides, spun briefly at 500 rpm for 15 s and incubated at RT in the dark for 1 hr. The assay was developed as per the manufacturer’s instructions. cAMP accumulation due to GLP1R agonism or GCGR agonism was measured using an EnVision platereader (PerkinElmer), and calibrated using the cAMP standard curve. Data were analyzed using Assay Data Analyzer (ADA).

Test [2] deals with T2, human GLP-1 receptor (GLP1R) (Homo sapiens, UniProt P43220).
T2 construct: expressed in transfected cells; host or cells: CHO-JumpIn cells, stably transfected
T2 sequence (P43220 24-463): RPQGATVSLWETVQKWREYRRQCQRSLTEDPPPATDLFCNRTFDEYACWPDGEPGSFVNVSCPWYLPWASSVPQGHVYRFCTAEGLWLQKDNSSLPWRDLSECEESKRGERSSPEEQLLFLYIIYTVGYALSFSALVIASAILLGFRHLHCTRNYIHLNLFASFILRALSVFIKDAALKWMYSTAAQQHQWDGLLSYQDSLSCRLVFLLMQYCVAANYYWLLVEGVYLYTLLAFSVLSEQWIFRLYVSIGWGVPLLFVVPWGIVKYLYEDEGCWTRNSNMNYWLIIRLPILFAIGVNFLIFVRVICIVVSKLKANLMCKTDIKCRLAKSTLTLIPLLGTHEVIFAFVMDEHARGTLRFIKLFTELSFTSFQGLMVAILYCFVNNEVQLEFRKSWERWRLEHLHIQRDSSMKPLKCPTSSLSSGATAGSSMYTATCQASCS
Kind of test: cAMP assay on CHO-JumpIn cells stably transfected with human GLP-1 receptor (HitHunter cAMP).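 Note: peptides tested as 4-fold serial dilution series, cells exposed 1 hr at RT in the dark, cAMP quantified against a cAMP standard calibration curve.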 The format is cell-based. The note with it: Table 2, cAMP accumulation, buffer PBS, 0.1% BSA, 100 μM RO 20-1724, 20% serum, 1 hr at RT, value ± spread, read-out: EC50 GLP1R. (In general: Changes in cAMP serve as a functional read-out for many G protein-coupled receptors.)

Residues, ends and D or L forms follow the SMILES beside them.

T1 sequence (P47871 26-477): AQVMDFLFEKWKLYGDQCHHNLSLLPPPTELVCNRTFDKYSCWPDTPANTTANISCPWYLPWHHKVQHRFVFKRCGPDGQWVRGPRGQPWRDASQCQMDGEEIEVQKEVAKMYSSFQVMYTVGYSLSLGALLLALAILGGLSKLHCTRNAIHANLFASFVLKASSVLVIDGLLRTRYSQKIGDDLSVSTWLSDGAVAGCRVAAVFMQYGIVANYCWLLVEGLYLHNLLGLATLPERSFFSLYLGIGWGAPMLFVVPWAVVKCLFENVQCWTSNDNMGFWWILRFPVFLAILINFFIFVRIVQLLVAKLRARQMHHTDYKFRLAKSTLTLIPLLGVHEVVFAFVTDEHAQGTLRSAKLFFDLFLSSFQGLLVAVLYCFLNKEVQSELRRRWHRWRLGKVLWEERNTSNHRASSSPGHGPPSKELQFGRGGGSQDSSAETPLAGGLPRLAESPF

In the case of `CC(C)C[C@H](NC(=O)[C@H](Cc1ccc(O)cc1)NC(=O)[C@H](CCCCN)NC(=O)[C@H](CO)NC(=O)[C@H](Cc1ccc(O)cc1)NC(=O)[C@H](CC(=O)O)NC(=O)[C@H](CO)NC(=O)[C@H](Cc1ccccc1)NC(=O)[C@H](Cc1ccccc1)NC(=O)[C@@H](NC(=O)CNC(=O)[C@H](CCC(N)=O)NC(=O)[C@H](CO)NC(=O)[C@@H](N)Cc1c[nH]cn1)[C@@H](C)O)C(=O)N[C@@H](CC(=O)O)C(=O)N[C@@H](CO)C(=O)N[C@@H](CCCNC(=N)N)C(=O)N[C@@H](CCCNC(=N)N)C(=O)N[C@@H](C)C(=O)N[C@@H](CCC(N)=O)C(=O)N[C@@H](CC(=O)O)C(=O)N[C@@H](Cc1ccccc1)C(=O)N[C@H](C(=O)N[C@@H](CCC(N)=O)C(=O)N[C@@H](Cc1c[nH]c2ccccc12)C(=O)N[C@@H](CC(C)C)C(=O)N[C@@H](CC(C)C)C(=O)N[C@@H](CCC(=O)O)C(=O)N[C@H](C(N)=O)[C@@H](C)O)C(C)C` [Peptide 34] (H-HSQGTFFSDYSKYLDSRRAQDFVQWLLET-NH2), the concentration for a half-maximal effect (EC50) in test [1] is 0.027 ± 0.005 nM; in test [2] it was 51.9 ± 57.7 nM.
The like results for `CC[C@H](C)[C@H](NC(=O)[C@H](CC(=O)O)NC(=O)[C@H](CC(C)C)NC(=O)[C@H](Cc1ccc(O)cc1)NC(=O)[C@H](CCCCN)NC(=O)[C@H](CO)NC(=O)[C@H](Cc1ccc(O)cc1)NC(=O)[C@H](CC(=O)O)NC(=O)[C@H](CO)NC(=O)[C@@H](NC(=O)[C@H](Cc1ccccc1)NC(=O)[C@@H](NC(=O)CNC(=O)[C@H](CCC(N)=O)NC(=O)[C@H](CO)NC(=O)[C@@H](N)Cc1c[nH]cn1)[C@@H](C)O)[C@@H](C)O)C(=O)NCC(=O)N[C@@H](CCCNC(=N)N)C(=O)N[C@@H](C)C(=O)N[C@@H](CCC(N)=O)C(=O)N[C@@H](CC(=O)O)C(=O)N[C@@H](Cc1ccccc1)C(=O)N[C@H](C(=O)N[C@@H](CCC(N)=O)C(=O)N[C@@H](Cc1c[nH]c2ccccc12)C(=O)N[C@@H](CC(C)C)C(=O)N[C@@H](CC(C)C)C(=O)N[C@@H](CC(N)=O)C(=O)N[C@H](C(N)=O)[C@@H](C)O)C(C)C` [Peptide 4] (H-HSQGTFTSDYSKYLDIGRAQDFVQWLLNT-NH2) were, in that order, 0.026 ± 0.002 nM and 1.33 ± 0.209 nM.
On to `CC[C@H](C)[C@H](NC(=O)[C@H](Cc1ccc(O)cc1)NC(=O)[C@H](CC(=O)O)NC(=O)[C@H](CO)NC(=O)[C@@H](NC(=O)[C@H](Cc1ccccc1)NC(=O)[C@@H](NC(=O)CNC(=O)[C@H](CCC(N)=O)NC(=O)[C@H](CO)NC(=O)[C@@H](N)Cc1c[nH]cn1)[C@@H](C)O)[C@@H](C)O)C(=O)N[C@@H](CCCCN)C(=O)N[C@@H](CC(C)C)C(=O)N[C@@H](CC(C)C)C(=O)N[C@@H](CC(=O)O)C(=O)N[C@@H](CO)C(=O)N[C@@H](CCCNC(=N)N)C(=O)N[C@@H](CCCNC(=N)N)C(=O)N[C@@H](C)C(=O)N[C@@H](CCC(N)=O)C(=O)N[C@@H](CC(=O)O)C(=O)N[C@@H](Cc1ccccc1)C(=O)N[C@H](C(=O)N[C@@H](CCC(N)=O)C(=O)N[C@@H](Cc1c[nH]c2ccccc12)C(=O)N[C@@H](CC(C)C)C(=O)N[C@@H](CCSC)C(=O)N[C@@H](CC(N)=O)C(=O)N[C@H](C(N)=O)[C@@H](C)O)C(C)C` [Peptide 7] (H-HSQGTFTSDYIKLLDSRRAQDFVQWLMNT-NH2), for which the EC50 in test [1] came to 0.301 ± 0.216 nM; in test [2], 78.3 ± 93.8 nM.
On to `CSCC[C@H](NC(=O)[C@H](CO)NC(=O)[C@@H](NC(=O)[C@H](CCSC)NC(=O)[C@@H](NC(=O)[C@H](Cc1ccccc1)NC(=O)[C@H](CC(=O)O)NC(=O)[C@H](CCC(N)=O)NC(=O)[C@H](C)NC(=O)[C@H](CCCNC(=N)N)NC(=O)[C@H](CCCNC(=N)N)NC(=O)[C@H](CO)NC(=O)[C@H](CC(=O)O)NC(=O)[C@H](CC(C)C)NC(=O)[C@H](Cc1ccc(O)cc1)NC(=O)[C@H](CCCCN)NC(=O)[C@H](CO)NC(=O)[C@H](Cc1ccc(O)cc1)NC(=O)[C@H](CC(=O)O)NC(=O)[C@H](CO)NC(=O)[C@@H](NC(=O)[C@H](Cc1ccccc1)NC(=O)[C@@H](NC(=O)CNC(=O)[C@H](CCC(N)=O)NC(=O)[C@H](CO)NC(=O)[C@@H](N)Cc1c[nH]cn1)[C@@H](C)O)[C@@H](C)O)C(C)C)[C@@H](C)O)C(=O)N[C@@H](CC(N)=O)C(=O)N[C@H](C(N)=O)[C@@H](C)O` [Peptide 26], for which the 50% effective concentration (EC50) in test [1] was greater than 200 nM; in test [2], 8.96 ± 1.84 nM.
The like results for `CC(C)C[C@H](NC(=O)[C@H](Cc1ccc(O)cc1)NC(=O)[C@H](CCCCN)NC(=O)[C@H](CO)NC(=O)[C@H](Cc1ccc(O)cc1)NC(=O)[C@H](CC(=O)O)NC(=O)[C@H](CO)NC(=O)[C@@H](NC(=O)[C@H](Cc1ccccc1)NC(=O)[C@@H](NC(=O)CNC(=O)[C@H](CCC(N)=O)NC(=O)[C@H](CO)NC(=O)[C@@H](N)Cc1c[nH]cn1)[C@@H](C)O)[C@@H](C)O)C(=O)N[C@@H](CC(=O)O)C(=O)N[C@@H](CO)C(=O)N[C@@H](CCCNC(=N)N)C(=O)N[C@@H](CCCNC(=N)N)C(=O)N[C@@H](C)C(=O)N[C@@H](Cc1c[nH]cn1)C(=O)N[C@@H](CC(=O)O)C(=O)N[C@@H](Cc1ccccc1)C(=O)N[C@H](C(=O)N[C@@H](CCC(N)=O)C(=O)N[C@@H](Cc1c[nH]c2ccccc12)C(=O)N[C@@H](CC(C)C)C(=O)N[C@@H](CC(C)C)C(=O)N[C@@H](CC(N)=O)C(=O)N[C@H](C(N)=O)[C@@H](C)O)C(C)C` [Peptide 11] (H-HSQGTFTSDYSKYLDSRRAHDFVQWLLNT-NH2) were, in that order, 0.018 ± 0.005 nM and 0.018 ± 0.001 nM.
The like results for `CC[C@H](C)[C@H](NC(=O)[C@H](CC(C)C)NC(=O)[C@H](Cc1c[nH]c2ccccc12)NC(=O)[C@H](CCC(N)=O)NC(=O)[C@@H](NC(=O)[C@H](Cc1ccccc1)NC(=O)[C@H](CC(=O)O)NC(=O)[C@H](CCC(N)=O)NC(=O)[C@H](C)NC(=O)[C@H](CCCNC(=N)N)NC(=O)[C@H](CCCNC(=N)N)NC(=O)[C@H](CO)NC(=O)[C@H](CC(=O)O)NC(=O)[C@H](CC(C)C)NC(=O)[C@H](Cc1ccc(O)cc1)NC(=O)[C@H](CCCCN)NC(=O)[C@H](CO)NC(=O)[C@H](Cc1ccc(O)cc1)NC(=O)[C@H](CC(=O)O)NC(=O)[C@H](CO)NC(=O)[C@@H](NC(=O)[C@H](Cc1ccccc1)NC(=O)[C@@H](NC(=O)CNC(=O)[C@H](CCC(N)=O)NC(=O)[C@H](CO)NC(=O)[C@@H](N)Cc1c[nH]cn1)[C@@H](C)O)[C@@H](C)O)C(C)C)C(=O)N[C@@H](CC(N)=O)C(=O)N[C@@H](Cc1ccc(O)cc1)C(N)=O` [Peptide 13] were, in that order, 0.078 ± 0.05 nM and 0.039 ± 0.008 nM.
Turning to `CSCC[C@H](NC(=O)[C@H](CC(C)C)NC(=O)[C@H](Cc1c[nH]c2ccccc12)NC(=O)[C@H](CCC(N)=O)NC(=O)[C@@H](NC(=O)[C@H](Cc1ccccc1)NC(=O)[C@H](CC(=O)O)NC(=O)[C@H](CCC(N)=O)NC(=O)[C@H](C)NC(=O)[C@H](CCCNC(=N)N)NC(=O)[C@H](CCCNC(=N)N)NC(=O)[C@H](CO)NC(=O)[C@H](CC(=O)O)NC(=O)[C@H](CC(C)C)NC(=O)[C@H](Cc1c[nH]c2ccccc12)NC(=O)[C@H](Cc1c[nH]cn1)NC(=O)[C@H](CO)NC(=O)[C@H](Cc1ccc(O)cc1)NC(=O)[C@H](CC(=O)O)NC(=O)[C@H](CO)NC(=O)[C@H](Cc1ccccc1)NC(=O)[C@H](Cc1ccccc1)NC(=O)[C@@H](NC(=O)CNC(=O)[C@H](CCC(N)=O)NC(=O)[C@H](CO)NC(=O)[C@@H](N)Cc1c[nH]cn1)[C@@H](C)O)C(C)C)C(=O)N[C@@H](CC(N)=O)C(=O)N[C@H](C(N)=O)[C@@H](C)O` [Peptide 22], the values for the EC50 in test [1] and in test [2] were 0.029 ± 0.001 nM and greater than 200 nM, respectively.

The term EC50 denotes the concentration at which the effect is half-maximal.
